Measurements reported in patent US11478528B2, “Antimicrobial peptides against Listeria monocytogenes” (MATERIAS S.r.l., priority 2017, dated 2022).
Entries after “also recorded” stand apart in the source; their conditions may differ. Ends that are not written are not given here.

Columns and labels:
[1] = pH stability assay by Circular Dichroism; conditions: for pH range with increase in the percentage of unordered random coil structure: 10 mM SDS, 24 hours at 37° C.
Procedure: The stability of the Bac-amp1 and IDR-1018 peptides was assessed by studying their secondary structure with Circular Dichroism (CD) spectroscopy in the presence of Sodium Dodecyl Sulfate (SDS) micelles at a concentration of 10 mM to mimic the condition of the cell membrane, in different temperature and pH conditions.
CD assays were performed with a Jasco J-810 Spectropolarimeter equipped with a thermostatted cuvette compartment. The samples were loaded into a 0.1 cm-long quartz cuvette (Hellma Analytics) and the spectrum was analyzed in the 190 nm to 250 nm range at temperatures of 15° C. or 90° C. for each sample.
The CD spectra were acquired at a scanning speed of 20 nm/min, and the recorded results represent an average of 5 scans. The spectra at 90° C. were collected at time zero and after 2 hours to evaluate the thermostability of peptides at high temperatures.
The average ellipticity of the residues ([θ], degrees cm^2 dmol^−1) was calculated using the following equation: [θ]=100θ/cn1 where θ represents ellipticity (m degrees), c is the concentration (mM) of the peptide, n is the number of residues. The secondary structure was calculated through the DICHROWEB site (Whitmore L and Wallace B A, 2004, Nucleic Acids Research 32: 668-673, Whitmore L and Wallace B A, 2008, Biopolymers 89:392-400, Lobley et al, 2002, Bioinformatics 18:211-212), using three different algorithms (SELCON3, CONTIN-LLe CDSSTR) (Sreerema N and Woody R W, 1993, Analytical Biochemistry 287:252-260; Sreerema N et al, 1999, Protein Science 8:370-380, Provencher S W and Glockner J, 1981, Biochemistry 20:33-37, Van Stokkum I H M et al, 1990, Analytical Biochemistry 191:110-118, Compton L A and Johnson W C, 1986, Analytical Biochemistry 155:155-167, Manavalan P and Johnson W C, 1987, Analytical Biochemistry 167:76-85, Sreerama N et al, 2000, Protein Science 8:370-380) and selecting as a comparison data set the SMP180 protein, which includes a high number of soluble and membrane proteins (Abdul-Gader A et al, 2011, Bioinformatics 27:1630-1636). […]

[2] = test system: L. monocytogenes biofilms; experiment: Antibiofilm activity assay with SEM on steel discs; type: cell-based, Listeria monocytogenes; conditions: for cells on steel discs by SEM, 5000× image: 50 μM
Procedure: The activity of the Bac-amp1 and IDR-1018 peptides on L. monocytogenes biofilms was further investigated by scanning electron microscopy (SEM).
Specifically, in this example the three-dimensional biofilm architecture, developed on stainless steel materials, was studied.
The Aisi 304 stainless steel discs with a diameter of 14.5 mm (SS) were treated with 600 μl of standardized inoculum in the presence or absence of each of the peptides at the concentration of 25 μM or 50 μM, or with control medium, according to the same method of Example 4a and repeatedly washed in sterile PBS to remove planktonic cells and fixated on a new plate with 1 ml of Karnovsky fixative containing 5% glutaraldehyde, 4% paraformaldehyde in buffer 0.064 M (Electronic Microscopy Science, Hatfield, Pa., USA) for 1 hour at 4° C. Thereafter, the samples were washed in 0.1 M cacodylate sodium buffer at pH 7.4 (Electronic Microscopy Science, Hatfield, Pa., USA) and the fixated cells were dehydrated in a series of aqueous acetone solutions at different concentrations, in particular 25%, 50%, 75% and 100%. The samples were glued onto polished aluminium sample holders (Electronic Microscopy Science, Hatfield, Pa., USA) and uniformly vacuum coated with a 20-nm thick gold layer with the K950 high-vacuum Turbo Evaporator and a K 350 coupling (Emitech Ltd, Ashford, UK). The coated samples were examined at the JEOL 6700 FEG Field Emission Electron Microscope (SEM Jeol, City and State) with magnification from 1000× to 5000×. For each sample, a number of images (5-10), acquired as electronic images were randomly analyzed.

[3] = Thermostability assay by Circular Dichroism; type: physicochemical; conditions: 15 to 90° C., 2 hours at 90° C., pH 6, 10 mM SDS
Procedure: The prepared samples were incubated for two hours at 15° C. or 90° C. A CD analysis was performed on samples stored at 15° C. and before and after incubation for two hours at 90° C.

[4] = test system: Listeria monocytogenes (ATCC strain and field strains SS1-SS5)
Procedure: The bactericidal activity of the Bac-amp1 and IDR-1018 peptides was evaluated against both Gram+ (Listeria monocytogenes and Staphylococcus aureus) and Gram− (Salmonella typhimurium) pathogenic bacteria.
Standard deviations for triple incubations of each plate and EC50 evaluation were determined using GraphPad Prism version 6.00 (Graph-Pad Software, La Jolla Calif. USA)
As regards Listeria monocytogenes, five field strains were added to the trial (wild strains) SS1 (serotype 4b), SS2 (serotype 4b), SS3 (serotype 4b), SS4 (serotype 4b), SS5 (serotype ½c) shown in Table 2. These strains were isolated from 200 samples of food waste, in particular fish products and milk derivatives, obtained from workbenches of food companies. All samples were collected in a context of official controls. Isolation of Listeria monocytogenes strains was performed according to the ISO-11290-1 standard. […]
In all the investigated experimental conditions, the plate counting method was used to estimate the bactericidal activity of the peptides. Specifically, the number of colonies grown on plates with agar seeded with bacterial suspensions in the absence or in the presence of individual dilutions of peptides was counted and compared. The standard deviations of the triple incubations of each plate were determined using statistical software. […]

S. thyphimurium (ATCC) = type: cell-based, Salmonella typhimurium; conditions: 6 h
Procedure: (§1) The evaluation of the minimum bactericidal concentration (MBC) was carried out as described in Bilikova et al, (2015, Peptides 68:190-196) and the evaluation of the effective concentration to reduce 50% of the bacterial population (EC50) of the two peptides was carried out with the micro-dilutions of the broth as described in Wang H X and Ng T B (2003, Peptides 24:969-972). Standard deviations for triple incubations of each plate and EC50 evaluation were determined using GraphPad Prism version 6.00 (Graph-Pad Software, La Jolla Calif. USA) Salmonella typhimurium A control stock suspension was prepared in which 10^3 CFU of S. typhimurium (ATCC13311 strain) were inoculated in 10 ml of BPW (Oxoid, Basingstoke, UK). […] Each dilution series included control plates inoculated with DMSO without the peptide and control plates with bacteria alone. In all the investigated experimental conditions, the plate counting method was used to estimate the bactericidal activity of the peptides. Specifically, the number of colonies grown on plates with agar seeded with bacterial suspensions in the absence or in the presence of individual dilutions of peptides was counted and compared. The standard deviations of the triple incubations of each plate were determined using statistical software. […]

[5] = test system: L. monocytogenes biofilms
Procedure: The antibiofilm activity of the Bac-amp1 and IDR-1018 peptides was tested by analyzing their ability to inhibit the formation of bacterial biofilms of L. monocytogenes.
The ability of peptides to prevent the formation of L. monocytogenes biofilms was determined according to the microplate assay described in G. Di Bonaventura et al. (2008, J Appl Microbiol 104(6):1552-61) with some modifications.
10 ml of bacterial suspension were then centrifuged the cell pellet was washed in PBS and diluted in BHI broth, reaching the concentration of about 10^3 CFU/ml of standardized inoculum.
The biofilm formation assays were conducted using as target surfaces the Aisi 304 stainless steel discs having a diameter of 14.5 mm (SS) used in the food industry as food contact surfaces. The discs were placed on 24-well Falcon® tissue culture plates, (Thermo Fisher Scientific Inc., Waltham, Mass., USA), with flat bottom and lid. Before use, the stainless steel discs were immersed in 10% acetone and left under weak stirring at room temperature for 30 min. After washing in ultrapure sterile water, the discs were incubated in ethanol 99.8% for 10 minutes under weak stirring and then washed in ultrapure sterile water, dried, packaged and sterilized at 121° C., 1 atm for 15 minutes.
In each set of experiments, 600 μl of standardized inoculum in the presence or absence of each of the peptides at the concentration of 12.5 μM, 25 μM or 50 μM were added to 24-well culture plates containing the previously treated stainless steel materials. BHI Broth was used as a negative control. The plates were incubated at 37° C. for 72 hours under static conditions. The cell count of L. monocytogenes, according to the ISO 11290-2:98 method. After incubation, the SS discs were washed three times with PBS and placed in a new plate to dry at 60° C. for 1 hour. […] Quantitative analysis of biofilm production was performed by adding 1 ml of 33% acetic acid, which removes the dye from the adhered cells. 200 μl of the obtained solution were transferred to a microplate and the crystal violet level (OD) was measured at 492 nm. […]

[6] = test system: L. monocytogenes (LM2 food-isolated strain); experiment: Antimicrobial activity of Bac-amp1 coupled gold nanoparticles (CFU count); type: cell-based, Listeria monocytogenes; conditions: 0.10 μM to 0.58 μM, 15×10^4 CFU/mL, 6 h at 37° C.
Procedure: The bactericidal efficacy of the functionalized gold nanoparticles prepared in Example 6 was determined against L. monocytogenes (LM2 food-isolated strain) and S. Typhimurium (ATCC 13311 strain) bacteria, which allowed the evaluation of the minimal bactericidal concentration (MBC50), corresponding to the lowest peptide concentration able to cause at least 50% reduction in the number of viable bacteria on agar plates.
L. monocytogenes and S. Typhimurium were grown at 37° C. in Half Fraser (Biorad-Italia) and BPW (Biomerieux-Italia) broths, respectively. […]
Data were determined by numbering the surviving colony forming units (CFU) in the Au—NPs-Bac-amp1 plates and in the Au—NPs plates and were expressed as percent decrease in the number of CFU with respect to the initial number of CFU. […]
Thus, in another set of experiments, the activity of Bac-amp1 coupled nanoparticles was determined incubating 15×10^4 CFU/mL (colony forming units/mL) of Listeria with increasing concentrations, ranging from 0.10 μM to 0.58 μM, of coupled nanoparticles (Au—NPs-Bac-amp1 plates), non-functionalized gold nanoparticles (Au—NPs plates) or free peptides (Bac-amp1 plates) for 6 h at 37° C. The number of viable colonies for the different plates at each concentration tested were counted.

S. aureus (NCTC) = type: cell-based, Staphylococcus aureus; conditions: 6 h
Procedure: as §1, with “Staphylococcus aureus” for “Salmonella typhimurium”, “(6571” for “(ATCC13311”, “BPW.” for “BPW (Oxoid, Basingstoke, UK).”, “Also in this case, the” for “Each”, “only. 50 μl of each bacterial suspension were poured onto petri dishes with blood agar or rabbit plasma fibrinogen agar and incubated for 20 hours at 37° C.” for “alone.”, “compared.” for “compared. The standard deviations of the triple incubations of each plate were determined using statistical software.”

| Substance | pH range with increase in the percentage of unordered random coil structure [1] | conformational stability at different pH ([1]; pH 1.0 to 11.0) | cells on steel discs by SEM, 5000× image [2] | thermostability (CD spectra) [3] | MIC, bactericidal activity against Listeria monocytogenes ([4]; ATCC strain and field strains SS1-SS5) | EC50 ([4]; ATCC strain and field strains SS1-SS5, 6 h) [nM] | EC50 (S. thyphimurium (ATCC)) [nM] | MIC, antibiofilm activity ([5]; biofilms) [µM] | MBIC100 (minimum biofilm inhibiting concentration) ([5]; biofilms, 72 h) [µM] | reduction of microbial biomass ([5]; concentrations of 25-50 μM, 72 h, 37° C., steel discs) [%] | biofilm formation by SEM ([2]; 25 μM) | bacterial cell death versus concentration [6] | EC50 (S. aureus (NCTC)) [nM] |
| --- | --- | --- | --- | --- | --- | --- | --- | --- | --- | --- | --- | --- | --- |
| VRLIVAVRIWRR-NH2 [IDR-1018, VRLIVAVRIWRR] | 8.0-11.0 | higher conformational stability at pH 1.0; also recorded: greater conformational stability at pH 1.0 | a greater number of cells | high thermostability | – | – | – | – | – | – | – | – | – |
| VRLIVKVRIWRR-NH2 [Bac-amp1, VRLIVKVRIWRR-NH2] | 1.0-4.0 | – | near absence of cells | – | below 10 μM | 550 | 2830 | 25 to 50 | 25 to 50 | 100 | significantly reduces the formation of biofilm | dose-dependent bacterial cell death | 1660 |
